{"source": "patent US11292807B2", "about": "(OCEANS LTD., priority 2015, dated 2022)", "key": {"PC3 [1]": {"system": "PC3", "details": "human, 72 h, 1 ug/mL"}, "MDA-MB [2]": {"system": "MDA-MB", "details": "for Fold change in viability AVG / MDA-MB AVG: MDA-MB; for Average cell viability: human, 72 h"}, "MDA-MB [3]": {"system": "MDA-MB", "experiment": "cells", "details": "Homo sapiens, read-out: Average cell viability, MDA-MB"}, "PC3 [4]": {"system": "PC3", "experiment": "CIMA assay, cell viability, PC3"}, "[5]": {"system": "U373 (glioblastoma-astrocytoma)", "experiment": "CIMA assay, cell viability, U373"}, "[6]": {"system": "SKOV3 (ovarian adenocarcinoma)", "experiment": "CIMA assay, cell viability, SKOV3", "details": "for Fold change in viability AVG: SKOV", "procedure": "Stock solutions of the extracts were prepared in dimethylsulfoxide (DMSO) at 10 mg/mL and stored in 200 μl aliquots at −20° C. until analysis. This preparation ensured that the DMSO delivered to cells in culture never exceeded 1%.\nPrepared extracts were assessed following chronic exposure conditions in which cells were seeded at 2×10^3 cells/well (96 well-plate) and incubated with test compounds for 72 h. Each compound was evaluated over a range of concentrations (0, 10, 25, 50 or 100 μg/ml). Cell proliferation was initially assessed using a standard colorimetric indicator of metabolic activity (CIMA) assay. In this assay, tetrazole reduction was evaluated as a measure of metabolic function that evaluates mitochondrial activity to determine the extent of cell proliferation within a culture. This assay is based on the reduction of yellow tetrazolium salt to purple formazan by mitochondrial reductases enzyme in viable cells, resulting in a color changed that confers a change in absorbance."}, "[7]": {"details": "10 ug/mL, listed as 169-14-15-4"}, "[8]": {"details": "10 ug/mL, listed as 174-13-14-3"}, "[9]": {"details": "50 ug/mL, listed as 169-14-15-4"}, "[10]": {"details": "U373, 1 ug/mL, listed as 169-14-15-4"}, "[11]": {"details": "U373, 1 ug/mL, listed as 174-13-14-3"}, "[12]": {"details": "U373, 10 ug/mL, listed as 169-14-15-4"}, "[13]": {"details": "U373, 10 ug/mL, listed as 174-13-14-3"}, "[14]": {"details": "U373, 50 ug/mL, listed as 169-14-15-4"}, "[15]": {"details": "U373, 50 ug/mL, listed as 174-13-14-3"}}, "note": "Where two headings read alike, the source gives them in different places."}
{"smiles": "CC/C=C\\C/C=C\\C/C=C\\C/C=C\\C/C=C\\CCCC(=O)OCC(COC1OC(CO)C(O)C(O)C1O)OC(=O)CCCCCCCCCCCCCCC", "note": "(stereo not shown) [Compound 2, MGDG C20:5/C16:0]", "values": [{"measurement": "Average cell viability", "setting": "PC3 [1]", "result": 97, "unit": "%"}, {"measurement": "Fold change in viability AVG", "setting": "MDA-MB [2]; 1 ug/mL, listed as 169-14-15-4", "result": 1.09}, {"measurement": "Fold change in viability AVG", "setting": "MDA-MB [2]; 1 ug/mL, listed as 174-13-14-3", "result": 1.11}, {"measurement": "Fold change in viability AVG", "setting": "MDA-MB [2]; [7]", "result": 1.09}, {"measurement": "Fold change in viability AVG", "setting": "MDA-MB [2]; [8]", "result": 0.90}, {"measurement": "Fold change in viability AVG", "setting": "MDA-MB [2]; [9]", "result": 0.49}, {"measurement": "Fold change in viability AVG", "setting": "MDA-MB [2]; 50 ug/mL, listed as 174-13-14-3", "result": 0.23}, {"measurement": "Fold change in viability AVG", "setting": "MDA-MB [2]; 100 ug/mL, listed as 169-14-15-4", "result": 0.24}, {"measurement": "Fold change in viability AVG", "setting": "MDA-MB [2]; 100 ug/mL, listed as 174-13-14-3", "result": 0.22}, {"measurement": "MDA-MB AVG", "setting": "MDA-MB [2]; sample at 1 ug/mL, listed as 169-14-15-4", "result": 1.09}, {"measurement": "MDA-MB AVG", "setting": "MDA-MB [2]; sample at 1 ug/mL, listed as 174-13-14-3", "result": 1.11}, {"measurement": "MDA-MB AVG", "setting": "MDA-MB [2]; sample at 10 ug/mL, listed as 169-14-15-4", "result": 1.09}, {"measurement": "MDA-MB AVG", "setting": "MDA-MB [2]; sample at 10 ug/mL, listed as 174-13-14-3", "result": 0.90}, {"measurement": "MDA-MB AVG", "setting": "MDA-MB [2]; sample at 50 ug/mL, listed as 169-14-15-4", "result": 0.49}, {"measurement": "MDA-MB AVG", "setting": "MDA-MB [2]; sample at 50 ug/mL, listed as 174-13-14-3", "result": 0.23}, {"measurement": "MDA-MB AVG", "setting": "MDA-MB [2]; sample at 100 ug/mL, listed as 169-14-15-4", "result": 0.24}, {"measurement": "MDA-MB AVG", "setting": "MDA-MB [2]; sample at 100 ug/mL, listed as 174-13-14-3", "result": 0.22}, {"measurement": "Average cell viability", "setting": "MDA-MB [2]; 1 ug/mL", "result": 102, "unit": "%"}, {"measurement": "Average cell viability", "setting": "MDA-MB [2]; 10 ug/mL", "result": 83, "unit": "%"}, {"measurement": "Average cell viability", "setting": "MDA-MB [2]; 100 ug/mL", "result": 20, "unit": "%"}, {"measurement": "viability at 1 µg/mL", "setting": "MDA-MB [3]; 1 ug/mL", "result": 100, "unit": "%"}, {"measurement": "viability at 10 µg/mL", "setting": "MDA-MB [3]; 10 ug/mL", "result": 101, "unit": "%"}, {"measurement": "viability at 100 µg/mL", "setting": "MDA-MB [3]; 100 ug/mL", "result": 22, "unit": "%"}, {"measurement": "viability at 1 µg/mL", "setting": "PC3 [4]; Homo sapiens, PC-3, read-out: Average cell viability, PC3, 1 ug/mL", "result": 107, "unit": "%"}, {"measurement": "Fold change in viability AVG", "setting": "PC3 [4]; PC3, 1 ug/mL, listed as 169-14-15-4", "result": 1.11}, {"measurement": "Fold change in viability AVG", "setting": "PC3 [4]; PC3, 1 ug/mL, listed as 174-13-14-3", "result": 1.00}, {"measurement": "Fold change in viability AVG", "setting": "PC3 [4]; PC3, 10 ug/mL, listed as 169-14-15-4", "result": 0.93}, {"measurement": "Fold change in viability AVG", "setting": "PC3 [4]; PC3, 10 ug/mL, listed as 174-13-14-3", "result": 0.71}, {"measurement": "Fold change in viability AVG", "setting": "PC3 [4]; PC3, 50 ug/mL, listed as 169-14-15-4", "result": 0.51}, {"measurement": "Fold change in viability AVG", "setting": "PC3 [4]; PC3, 50 ug/mL, listed as 174-13-14-3", "result": 0.05}, {"measurement": "Fold change in viability AVG", "setting": "PC3 [4]; PC3, 100 ug/mL, listed as 169-14-15-4", "result": 0.15}, {"measurement": "Fold change in viability AVG", "setting": "PC3 [4]; PC3, 100 ug/mL, listed as 174-13-14-3", "result": 0.05}, {"measurement": "PC3 AVG", "setting": "PC3 [4]; PC3, sample at 1 ug/mL, listed as 169-14-15-4", "result": 1.11}, {"measurement": "PC3 AVG", "setting": "PC3 [4]; PC3, sample at 1 ug/mL, listed as 174-13-14-3", "result": 1.00}, {"measurement": "PC3 AVG", "setting": "PC3 [4]; PC3, sample at 10 ug/mL, listed as 169-14-15-4", "result": 0.93}, {"measurement": "PC3 AVG", "setting": "PC3 [4]; PC3, sample at 10 ug/mL, listed as 174-13-14-3", "result": 0.71}, {"measurement": "PC3 AVG", "setting": "PC3 [4]; PC3, sample at 50 ug/mL, listed as 169-14-15-4", "result": 0.51}, {"measurement": "PC3 AVG", "setting": "PC3 [4]; PC3, sample at 50 ug/mL, listed as 174-13-14-3", "result": 0.05}, {"measurement": "PC3 AVG", "setting": "PC3 [4]; PC3, sample at 100 ug/mL, listed as 169-14-15-4", "result": 0.15}, {"measurement": "PC3 AVG", "setting": "PC3 [4]; PC3, sample at 100 ug/mL, listed as 174-13-14-3", "result": 0.05}, {"measurement": "viability at 100 µg/mL", "setting": "[5]; Homo sapiens, U373 MG, read-out: Average cell viability, U373, 100 ug/mL", "result": 8, "unit": "%"}, {"measurement": "Average cell viability", "setting": "[5]; [10]", "result": 106, "unit": "%"}, {"measurement": "Fold change in viability AVG", "setting": "[5]; [10]", "result": 1.08}, {"measurement": "Average cell viability", "setting": "[5]; [11]", "result": 85, "unit": "%"}, {"measurement": "Fold change in viability AVG", "setting": "[5]; [11]", "result": 0.86}, {"measurement": "Average cell viability", "setting": "[5]; [12]", "result": 94, "unit": "%"}, {"measurement": "Fold change in viability AVG", "setting": "[5]; [12]", "result": 0.95}, {"measurement": "Average cell viability", "setting": "[5]; [13]", "result": 73, "unit": "%"}, {"measurement": "Fold change in viability AVG", "setting": "[5]; [13]", "result": 0.74}, {"measurement": "Average cell viability", "setting": "[5]; [14]", "result": 30, "unit": "%"}, {"measurement": "Fold change in viability AVG", "setting": "[5]; [14]", "result": 0.30}, {"measurement": "Average cell viability", "setting": "[5]; [15]", "result": 13, "unit": "%"}, {"measurement": "Fold change in viability AVG", "setting": "[5]; [15]", "result": 0.13}, {"measurement": "U373 AVG", "setting": "[5]; U373, sample at 1 ug/mL, listed as 169-14-15-4", "result": 1.08}, {"measurement": "U373 AVG", "setting": "[5]; U373, sample at 1 ug/mL, listed as 174-13-14-3", "result": 0.86}, {"measurement": "U373 AVG", "setting": "[5]; U373, sample at 10 ug/mL, listed as 169-14-15-4", "result": 0.95}, {"measurement": "U373 AVG", "setting": "[5]; U373, sample at 10 ug/mL, listed as 174-13-14-3", "result": 0.74}, {"measurement": "U373 AVG", "setting": "[5]; U373, sample at 50 ug/mL, listed as 169-14-15-4", "result": 0.30}, {"measurement": "U373 AVG", "setting": "[5]; U373, sample at 50 ug/mL, listed as 174-13-14-3", "result": 0.13}, {"measurement": "U373 AVG", "setting": "[5]; U373, sample at 100 ug/mL", "result": 0.08}, {"measurement": "Fold change in viability AVG", "setting": "[5]; U373, 100 ug/mL", "result": 0.08}, {"measurement": "viability at 50 µg/mL", "setting": "[6]; Homo sapiens, SK-OV-3, read-out: Average cell viability, SKOV, 50 ug/mL", "result": 67, "unit": "%"}, {"measurement": "Fold change in viability AVG", "setting": "[6]; 1 ug/mL, listed as 169-14-15-4", "result": 1.16}, {"measurement": "Fold change in viability AVG", "setting": "[6]; 1 ug/mL, listed as 174-13-14-3", "result": 0.89}, {"measurement": "Fold change in viability AVG", "setting": "[6]; [7]", "result": 1.02}, {"measurement": "Fold change in viability AVG", "setting": "[6]; [8]", "result": 0.72}, {"measurement": "Fold change in viability AVG", "setting": "[6]; [9]", "result": 0.72}]}
